Drawing on BindingDB's records for PubMed 2746503 (Universit&Eacute, 1989), this text covers Ki for two compounds.

Molecules are shown by their SMILES. pKi: −log10 of the molar value. Where “and” joins values, the source holds several entries; their conditions need not be identical. Equal entries are not always repeated.

In assay [1] the target is T1, Muscarinic acetylcholine receptor M2 (Sus scrofa, UniProt P06199).
T1 sequence (P06199 whole entry): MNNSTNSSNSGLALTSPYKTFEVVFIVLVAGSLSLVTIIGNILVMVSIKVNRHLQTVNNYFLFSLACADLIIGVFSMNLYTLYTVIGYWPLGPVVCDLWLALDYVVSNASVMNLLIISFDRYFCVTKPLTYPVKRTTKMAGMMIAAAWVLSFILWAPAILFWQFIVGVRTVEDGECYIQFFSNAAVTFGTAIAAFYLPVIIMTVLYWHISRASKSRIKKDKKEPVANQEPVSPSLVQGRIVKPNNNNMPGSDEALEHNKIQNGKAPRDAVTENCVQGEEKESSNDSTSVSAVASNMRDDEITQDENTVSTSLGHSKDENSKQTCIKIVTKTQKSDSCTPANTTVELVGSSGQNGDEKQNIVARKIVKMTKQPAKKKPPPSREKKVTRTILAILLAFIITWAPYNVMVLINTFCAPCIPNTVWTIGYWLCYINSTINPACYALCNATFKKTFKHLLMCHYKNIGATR

Assay [2] deals with T2, Muscarinic acetylcholine receptor M2 (Homo sapiens, UniProt P08172).
T2 sequence (P08172 whole entry): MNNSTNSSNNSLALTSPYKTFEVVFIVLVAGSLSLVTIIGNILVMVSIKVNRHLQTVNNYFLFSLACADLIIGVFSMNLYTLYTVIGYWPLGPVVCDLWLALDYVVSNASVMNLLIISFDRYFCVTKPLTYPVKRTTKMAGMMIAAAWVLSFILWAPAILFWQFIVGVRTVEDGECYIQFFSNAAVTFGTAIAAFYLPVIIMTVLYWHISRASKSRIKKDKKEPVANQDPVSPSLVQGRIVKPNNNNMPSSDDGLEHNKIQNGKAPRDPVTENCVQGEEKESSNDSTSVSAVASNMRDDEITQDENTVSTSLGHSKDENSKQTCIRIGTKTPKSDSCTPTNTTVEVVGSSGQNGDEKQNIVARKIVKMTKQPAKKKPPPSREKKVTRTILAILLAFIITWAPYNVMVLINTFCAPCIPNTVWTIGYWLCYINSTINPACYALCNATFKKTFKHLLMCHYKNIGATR

The target of assay [3] is T3, Muscarinic acetylcholine receptor M2 (Rattus norvegicus, UniProt P10980).
T3 sequence (P10980 whole entry): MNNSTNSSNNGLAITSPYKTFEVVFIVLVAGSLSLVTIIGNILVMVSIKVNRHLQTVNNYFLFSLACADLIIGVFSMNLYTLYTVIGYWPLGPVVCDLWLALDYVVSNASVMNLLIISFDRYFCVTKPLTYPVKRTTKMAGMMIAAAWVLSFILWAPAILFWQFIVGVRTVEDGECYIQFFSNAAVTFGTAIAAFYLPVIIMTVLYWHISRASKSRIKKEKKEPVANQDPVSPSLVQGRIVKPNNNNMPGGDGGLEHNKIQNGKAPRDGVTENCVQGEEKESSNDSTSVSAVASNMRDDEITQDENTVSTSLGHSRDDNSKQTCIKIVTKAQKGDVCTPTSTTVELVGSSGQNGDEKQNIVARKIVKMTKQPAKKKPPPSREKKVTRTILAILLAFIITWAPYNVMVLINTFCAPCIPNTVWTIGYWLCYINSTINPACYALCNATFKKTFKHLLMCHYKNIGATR

Take `CN1CCN(CC(=O)N2c3ccccc3C(=O)Nc3cccnc32)CC1` [11-[(4-methylpiperazin-1-yl)acetyl]-5,11-dihydro-6H-pyrido[2,3-b][1,4]benzodiazepin-6-one]: in assay [1], the pKi was 7.09 and 6.56.
With `CCN(CC)CC1CCCCN1CC(=O)N1c2ccccc2C(=O)Nc2cccnc21` (centres undefined) [(AF-DX 116) 11-[2-(2-Diethylaminomethyl-piperidin-1-yl)-acetyl]-5,11-dihydro-benzo[e]pyrido[3,2-b][1,4]diazepin-6-one], the pKi in assay [2] was 7.00 and 7.76; in assay [1], 7.54 and 7.66; in assay [3], 7.51 and 7.57.
